The results in this text go back to a melting point compilation (Tetko et al.; mined from patent text by program, amines drawn as free bases though some values may be those of a salt).

The structures appear in SMILES notation. Some results are limits rather than exact numbers.

Usually melting point stands for the temperature of the solid-liquid transition.

Turning to `COc1cc2c(cc1OCCN(C)C)N(C(=O)c1ccc(-c3ccc(-c4noc(C)n4)cc3C)cc1)CCC2`, the melting point was in the range of 139 to 141 °C. For `CC(=O)Nc1c(C(=O)c2cccc(Br)c2)[nH]c2cc(Cl)ccc12` the value was 183 to 184 °C. Turning to `CCOC(=O)c1c(C(F)(F)F)nc2ccc(OC)cc2c1O`, the melting point amounted to 184 °C.

Molecule `CCCC(=O)Oc1ccc2[nH]c(=O)c(-c3nnn(Cc4cccc(OCc5ccc6ccccc6n5)c4)n3)cc2c1` registered a melting point of 200 to 202 °C. For `CC(c1oc2ccccc2c(=O)c1-c1cccc(F)c1)n1nc(-c2cc(O)cc(Cl)c2)c2c(N)ncnc21` (stereo not drawn) the value was 122 to 124 °C; for `Clc1ncc(C2CCCCC2)c2ccccc12`, 53 to 55 °C; for `NC(=O)c1cccc(-c2ccc(Oc3ccc(F)cc3)cc2)n1`, 150 to 152 °C. Turning to `CC(C)(C)N(NC(=O)c1cccs1)C(=O)c1ccccc1`, the melting point was > 190 °C. For `CC(CO)c1ccc(-c2ccccc2F)c(F)c1` (stereo not drawn) the value was 80 to 82.5 °C; for `CC1=Nc2ccc(CO)cc2C(=O)C1`, 249 to 252 °C. For `N#Cc1ccc(C2NCCS2)cc1` (stereo not drawn) the value was 57 to 58 °C; for `Cc1c(-c2ccccc2)c(N2CC[C@H](N(C)C)C2)c2oc(N3CC(C)(O)C3)nc2c1C#N`, 167 to 169 °C. For `CCCC[C@H](NC(=O)[C@H](CC(C)C)NC(=O)c1ccc(F)cc1F)C(=O)CSCc1ccco1` the value was 97 to 98 °C; for `c1ccc(N2CCN(CCc3ccc4ccccc4n3)CC2)cc1`, 79 °C; for `CCCCS(=O)(=O)Nc1ccc(OCc2ccc3ccccc3n2)c(C#N)c1`, 158 to 160 °C. For the molecule `CCc1c(C(=O)c2cc(C)cc(C)c2)n(CC=C(C)C)c(=O)[nH]c1=O`, the melting point fell in the range of 255 to 260 °C.

In turn, `COC(=O)C(O)=CC(=O)c1cn(Cc2ccccc2F)c(=O)n(Cc2ccccc2F)c1=O` returned a melting point of 158 to 160 °C. For `COc1ccc2c(c1OC)CCC2C(=O)O` (stereo not drawn) the value was 128 to 130 °C; for `CCOc1ccc(Nc2nc(NC(CO)CO)nc(N(C)C3CCN(C)CC3)n2)cc1Cl`, 84 °C; for `COc1ccc(C(=O)c2ccccc2)cc1OC1CCCC1`, 73.5 to 75 °C. For `O=[N+]([O-])c1ccc2c(Br)cc3nc(O)c(O)nc3c2c1` the value was > 300 °C; for `CCOC(=O)CCn1cnc2c1N=CNC2N` (stereo not drawn), 166 to 167 °C. For `Cc1[nH]cnc1CN1CCc2c(c3cccc(F)c3n2C)C1=O` the value was 230 to 233 °C; for `COc1cc(Cl)c(C#N)cc1C(=O)O`, 100 to 102 °C. `CC(C)C=CC(CC1CCCCC1)NC(=O)OC(C)(C)C` (racemic) registered a melting point of 74 °C. As for `C(=NC(c1ccccc1)c1ccccc1)c1ccccc1`, the melting point fell in the range of 99 to 101 °C. `O=C(C=P(c1ccccc1)(c1ccccc1)c1ccccc1)N1CCCCC1` gave a melting point of 180 to 188 °C. As for `CCCOc1cc(C(=O)O)cc(S(N)(=O)=O)c1-c1ccccc1`, the melting point was in the range of 155 to 157 °C. For `CN=Cc1cccc(C(=O)NC)c1` the value was 87 °C.

`CCCCCS(=O)(=O)NC(=O)CCc1ccc(OCCOC)cc1OCC1CC1` had a melting point of 81.7 to 82.8 °C. For `O=C1NCCN1Cc1ccncc1` the value was 153 to 155 °C; for `CNC(=O)c1sc(NC(C)=O)nc1CCc1ccc(NC(NC(=O)OC(C)(C)C)NC(=O)OC(C)(C)C)cc1`, 245 to 246 °C. For `CCCCOC(=O)C=Nc1cc(Cl)ccc1C(=O)O` the value was 130 °C. `CCOC(=O)c1cnc(SC)nc1NCc1ccc(OC)c(Cl)c1` yielded a melting point of 82 to 83 °C. In the case of `CC(C)CC(O)c1cccc(NC(=O)OCc2ccccc2)c1` (stereo not drawn), the melting point fell in the range of 73 to 77 °C.

`O=C(Cc1c(-c2ccccc2)c2cc3c(cc2oc1=O)CCC3)Nc1c(Cl)cncc1Cl`: the melting point was 257 to 259 °C. Take `CC(=O)NS(=O)(=O)c1ccc(C2=C(c3ccc(F)c(Cl)c3)CCC2)cc1`: the melting point was 127 to 129 °C. For `C#Cc1cc2cccnc2c(-c2cccc([N+](=O)[O-])c2)n1` the value was 215 °C. For `CSc1nc2cc(Cl)ccc2n1C1CCN(CCCn2c(=O)[nH]c3ccccc32)CC1` the value was 196 °C. For `Nc1cc(-c2cccnc2)cc2nc(-c3ccccc3)nn12` the value was 201 to 203 °C; for `O=C(O)C1CCc2c(c3ccccc3n2C(=O)c2ccc(-c3ccccc3)cc2)C1` (stereo not drawn), 212 to 213 °C; for `Cc1cc(O)c(S(=O)CC2CCCCC2)c(=O)o1` (stereo not drawn), 132 to 134 °C. For the molecule `C=CCONC(CCC)=C1C(=O)CC(C2CCOCC2)CC1=O` (stereo not drawn), the melting point lay in the range of 55 to 56 °C. For `O=C1C=CC(=O)N1CCCCCCN1C(=O)C=CC1=O`, the melting point is 136 to 139 °C. For the molecule `CCOC(=O)Cn1c(C(=O)NCc2nnc(CO)n2-c2sc(CC)cc2C(=O)c2ccccc2Cl)cc2ccccc21`, the melting point is 92 to 96 °C.

`CC(C)(C)OC(=O)NCCCCO/N=C(\C(=O)O)c1csc(NC(c2ccccc2)(c2ccccc2)c2ccccc2)n1` came in with a melting point of 120 to 124 °C. For `Cc1cc(CCCCCCCOc2ccc(C(N)=O)cc2)on1` the value was 153 to 154 °C. For `O=C(O)Cc1ccc2nc(-c3ccccc3)ccc2c1`, the melting point lay in the range of 161 to 162 °C. For `COc1ccc(C2=C(N)c3cc(OC)ccc3C2=O)cc1` the value was 213 °C. With `Cc1ccccc1-c1cnc2c(C(F)(F)F)cccc2c1-c1cccc(N)c1`, the melting point was in the range of 148 to 151 °C. For `C=CCSc1nnc(OC)c2c1CCCC2` the value was 46 to 48 °C; for `O=C(Cc1ccccc1)NC1CN(OC(=O)c2ccccc2)C1=O` (stereo not drawn), 128 to 130 °C; for `CS(=O)(=O)n1c(Cc2ccc(C(=O)O)cc2)cc2cc(Cl)ccc21`, 244 °C. For `ClCc1cn(C(c2ccccc2)(c2ccccc2)c2ccccc2)cn1` the value was 88 to 91 °C; for `CC(C)(C)OC(=O)C=Cc1ccc(C(=O)C(=C(F)F)c2ccccc2)cc1`, 88 to 94 °C; for `Cc1ccc2c3c(ccc2n1)OCC(CNCC1CCc2[nH]c4cc(Cl)c(F)cc4c2C1)O3` (stereo not drawn), 243 to 244 °C. For `C=CCC(N)(c1ccccc1)C(O)c1ccccc1` (stereo not drawn) the value was 85 to 86 °C.

On to `COc1ccc(N)c(C(=O)CS(=O)(=O)N(C)C)c1`, for which the melting point lay within 198 to 200 °C.

Regarding `Cc1nc2c(-c3cccc(C(F)(F)F)c3)cncn2n1`, the melting point was 114 to 116 °C. In the case of `O=C(O)c1ccc(Cl)c(Sc2ccccc2[N+](=O)[O-])c1`, the melting point lay in the range of 261 to 262 °C.

The molecule `COc1cc(C=C(C(C)=O)C(C)=O)cc(OC)c1OC` displayed a melting point of 83 to 86 °C. Regarding `CC1C(=O)C(c2ccc(S(C)(=O)=O)cc2)=C1c1ccccc1` (stereo not drawn), the melting point is 121 to 122 °C. For `CCCc1nc2c(N)nc3ccccc3c2n1CC(=O)OCC` the value was 170 to 172 °C; for `O=C(Nc1cc(C(F)(F)F)ccc1O)Nc1ccccc1C(F)(F)F`, 158 to 159 °C.

The molecule `Cc1cc(SCc2sc(-c3ccc(F)cc3)nc2C)ccc1OCC(=O)O` showed a melting point of 45 to 46 °C. For `O=c1[nH]c2ccc(C3=NOC(CN4CCC(C(O)c5ccc(F)cc5)CC4)C3)cc2o1` (stereo not drawn) the value was 186 to 191 °C. For `CC1(C)Oc2ccc(C#N)cc2C(Oc2cccnc2)C1(C)O` (stereo not drawn) the value was 193 to 196 °C. Take `CCCCCCCCCCCOc1cccc(CCCC(N)(CO)CO)c1`: the melting point was in the range of 71 to 72 °C. For `O=c1cccc(-c2ccc(Cl)cc2)[nH]1` the value was 200 to 203 °C; for `Cc1ccccc1C(=O)Nc1cccc(C(C)C)c1`, 70 to 71 °C; for `Nc1nc(N)nc(N2CCSCC2)n1`, 237 to 239 °C.

`COc1cc(O)nc(N)n1` gave a melting point of 106 to 107 °C. For `COc1cc2c(cc1OC)C(Oc1ccc(Cl)cc1)CN(C)C2` (stereo not drawn) the value was 112 to 115 °C.

`CC(C)(CCl)c1cc(Cl)nnc1Br` returned a melting point of 79 to 81 °C. Molecule `CCCCCCCC(=O)Oc1nc2c(N)ncnc2n1Cc1ccccc1` displayed a melting point of 248 to 250 °C.

In turn, `O=C(O)CCC(=O)c1ccc([N+](=O)[O-])c(O)c1` displayed a melting point of 158 to 160 °C. For `O=c1oc(-c2ccc(C(F)(F)F)cc2)nn1Cc1cc(Cl)ccc1OP(=O)(O)O` the value was 173 to 176 °C; for `COC(=O)c1sc2nc(C(C)C)ccc2c1O`, 80 to 81 °C.

The molecule `O=C[C@H]1CC[C@H](SCc2ccc(Cl)cc2)CC1` returned a melting point of 44 to 46 °C. For `CCNC(=O)Nc1ccccc1` the value was 99 to 100 °C; for `CC(C(N)=O)c1ccc(-c2ccc(F)cc2F)c(O)c1` (stereo not drawn), 222 to 224 °C. For `Cc1nc(N)c2nc(CONC(C)C)n(CCCCNC(=O)c3ccccc3)c2c1C` the value was 161 to 162 °C. For `Cc1c(C)c2c(c(C)c1NC(=O)NCCCO)C(c1ccc(C(C)C)cc1)CO2` (stereo not drawn) the value was 185 to 186 °C; for `O=C(c1ccc(Cl)cc1)c1ccc(OC(F)(F)F)cc1`, 74.5 to 75 °C; for `COc1nccc2oc(S(N)(=O)=O)cc12`, 180 to 182 °C.

`CCOC(=O)c1c(-c2ccc(OC)c(OC)c2)c2cc(C)ccc2n(C)c1=O` registered a melting point of 109 to 110 °C. For `CS(=O)c1cccc(S(N)(=O)=O)c1` (stereo not drawn) the value was 217 to 221 °C; for `CC(C)n1nc(-c2sc(C(=O)NCc3ccncc3)nc2-c2ccccc2)ccc1=O`, 192 to 193 °C; for `CN1C(=O)C(c2ccc(OC(F)F)cc2)(c2cccc(C(F)CCCF)c2)N=C1N` (stereo not drawn), 54 to 57 °C. For `COc1ccc2c(c1)CCNC2=O` the value was 128 to 130 °C; for `N#Cc1ccc(N(Cc2ccc(O)c(Cl)c2)n2cnnc2)cc1-c1cc2ccccc2o1`, 196 to 197 °C; for `CCC(CC)(CC(=O)Nc1cccc(OCc2ccc3cc(F)ccc3n2)c1)C(=O)O`, 88 to 90 °C. For `CC(C#Cc1ccc(C=Cc2ccc(F)cc2)o1)N(O)C(N)=O` (stereo not drawn) the value was 177 °C.
